Test results from PMC8143184, “Exploring the Diversity of Fungal DyPs in Mangrove Soils to Produce and Characterize Novel Biocatalysts” (Journal of Fungi, 2021).
Like-named read-outs stand apart in the source and are kept apart here.

Tests used:
[1] = tested on: DyP1 (OFU1; recombinant DyP1 from mangrove soils); conditions: read-out: Parameters / Km; H2O2 0.25 mM co-substrate; 100 mM citrate-phosphate pH 3; 30 °C
[2] = tested on: T1, DyP1 (OFU1; recombinant DyP1 from mangrove soils); test: dye decolorization at […] nm, Michaelis-Menten fit; assay type: biochemical; conditions: H2O2 0.25 mM co-substrate; 100 mM citrate-phosphate pH 2.6; 30 °C; read-out: Parameters / Km
T1 construct: codon-optimized synthetic cDNA from environmental cDNA capture; secreted from Pichia pastoris X33 (pPICZalphaA), C-terminal His6 tag; expected 55 kDa, about 70 kDa glycosylated on SDS-PAGE

Row | Km [1] [µM] | Km [2] [µM] | Compound
1 | 651 ± 81 |  | CCn1c(=NN=c2sc3cc(S(=O)(=O)O)ccc3n2CC)sc2cc(S(=O)(=O)O)ccc21 [ABTS]
2 |  | 1500 ± 878 | Nc1c(S(=O)(=O)O)cc(Nc2cccc(S(=O)(=O)CCOS(=O)(=O)O)c2)c2c1C(=O)c1ccccc1C2=O [RB19]
